Consider 17 compounds from US20250129049A1, “1H-PYRAZOLE-3-AMINE DERIVATIVE HAVING BICYCLIC BACKBONE” (Sumitomo Pharma Co., Ltd., priority 2021, published 2025).

The structures appear in SMILES notation.

Data set [1] concerns the target hERG current (Homo sapiens (Human), UniProt Q12809). Put plainly: cell-based.
Data set [2] relates to ES-2 cells. Nature of the data set: Cell growth suppression experiment (ES-2). The data set is classed as cell-based. Particulars: Homo sapiens, 48 h, cultured 2 days, CellTiter-Glo 3D. As to the method:
ES-2 cells were obtained from the American Type Culture Collection (ATCC). These cells were cultured at 37° C. in the presence of 5% CO2 in a McCoy's 5a medium containing 10% fetal bovine serum and 1% penicillin/streptomycin.
500 cells were seeded for each well in a 384-well plate, and the evaluated compound was added to the final DMSO concentration of 0.1% to culture the cells for 2 days. After completion of the culture, the cell viability rate was calculated using CellTiter-Glo (registered trademark) 3D Reagent (Promega, G968B).

The target of data set [3] is CHK1 kinase (Homo sapiens (Human), UniProt O14757).
Data set [4] in a line: Liposome encapsulation test. The data set is classed as physicochemical. Particulars: concentration upon compound introduction 2 or 3 mg/mL. As to the method:
6.48 g of hydrogenated soybean phosphatidylcholine (COATSOME NC-21E, NOF Corporation), 2.32 g of cholesterol (Sigma) and 2.06 g of distearoylphosphatidylethanolamine-methoxypolyethylene glycol 2000 (SUNBRIGHT DSPE-020CN, NOF Corporation) were dissolved in 560 mL of t-butyl alcohol heated to 65° C. The solution was frozen with dry ice/acetone bath and t-butyl alcohol was then removed by evaporation under reduced pressure to obtain a lipid mixture.
200 mL of 250 mM ammonium sulfate solution was added to the lipid mixture. The resulting mixture was heated to 65° C. and dispersed with a homogenizer (ULTRA-TURRAX, IKA) to obtain a crude liposome dispersion. […] A dialysis cassette (Slide-A-Lyzer G2 Dialysis Cassettes 20K MWCO, Thermo Scientific) was used to replace the outer aqueous phase of the liposome with a 10 mM L-histidine buffer/10% sucrose solution (pH 6.5) to obtain an empty liposome solution. The solution was filtered through a 0.22 μm membrane filter, and a 10 mM L-histidine buffer/10% sucrose solution (pH 6.5) was added to adjust the total lipid concentration to be 75 mM (75 μmol/mL) or 50 mM (50 μmol/mL). The prepared amount was increased or decreased appropriately.
2 to 3 mg of the test compound was weighed out. 1 mL of the empty liposome solution with a total lipid concentration of 50 mM was added. An aqueous 1 mol/L hydrochloric acid or 1 mol/L sodium hydroxide solution was added to adjust the pH to 5.5 to 7. […] Insoluble substances, when present, were removed by centrifugation for 5 minutes at 15,000× g.
The liposome encapsulation ratio was calculated as follows.
100 μL of liposome solution was passed through an ultrafiltration filter (Amicon Ultra, 100K, 0.5 mL, Merck), and centrifuged at 4° C. at 15,000×g for 10 minutes. The concentration of the compound in the filtrate after ultrafiltration was measured by HPLC as the unencapsulated compound concentration.
The liposome solution was diluted with a trifluoroacetic acid/water/methanol mixture (0.1/25/75) and was left standing for 10 minutes or longer at 5° C. The solution was centrifuged for 5 minutes at 15,000× g to remove insoluble substances. The compound concentration in the supernatant was measured by HPLC as the compound concentration in the liposome solution.
The encapsulation ratio and the encapsulation efficiency were calculated by the following equations.
HPLC measurement conditions are the following.

Data set [5] in a line: Pharmacokinetic test, intravenous administration to mice. It counts as in vivo. Particulars: female, BALB/c, mouse, plasma, liposome formulations, 1.0 mg/kg i.v., trapezoidal method, 0 hours to last quantifiable time. As to the method: Blood was collected over time up to 72 hours after administration from the jugular vein under no anesthesia.
The test system of data set [6] is SW948 cells. Put plainly: Cell growth suppression test on various cancer cell lines: SW948. It counts as cell-based. Particulars: Homo sapiens, 72 h; SW948 (colon cancer), cultured 3 days. As to the method:
(§1) HT1080 cells (derived from soft tissue sarcoma) were cultured at 37° C. in the presence of 5% CO2 in an EMEM medium containing 10% fetal bovine serum and 1% penicillin/streptomycin. SJCRH30 cells (derived from soft tissue sarcoma) and BxPC3 cells (derived from pancreatic cancer) were cultured at 37° C. in the presence of 5% C02 in a McCoy's 5a medium containing 10% fetal bovine serum and 1% penicillin/streptomycin. SW948 cells (derived from colon cancer) were cultured at 37° C. in air in a L-15 medium containing 10% fetal bovine serum and 1% penicillin/streptomycin.
(§2) The cells were seeded for each well in a 96-well plate at 70-90% confluency 96 hours after seeding, the evaluated compound was added to the final DMSO concentration of 0.1%, and the cells were cultured for 3 days. After completion of the culture, the cell viability rate was calculated using CellTiter-Glo (registered trademark) 3D Reagent (Promega, G968B).

The test system of data set [7] is HT1080 cells. Nature of the data set: Cell growth suppression test on various cancer cell lines: HT1080. The data set is classed as cell-based. Particulars: Homo sapiens, HT-1080, 72 h; HT1080 (soft tissue sarcoma), cultured 3 days. As to the method: as §1, §2
The subject of data set [8] is BxPC3 cells. Put plainly: Cell growth suppression test on various cancer cell lines: BxPC3. It counts as cell-based. Particulars: Homo sapiens, BXPC-3, 72 h; BxPC3 (pancreatic cancer), cultured 3 days. As to the method: as §1, §2
For data set [9], the system named is SJCRH30 cells. Put plainly: Cell growth suppression test on various cancer cell lines: SJCRH30. The data set is classed as cell-based. Particulars: 72 h; SJCRH30 (soft tissue sarcoma), cultured 3 days. As to the method: as §1, §2
Data set [10] addresses hERG (Homo sapiens (Human), UniProt Q12809). Put plainly: in vitro. Particulars: CHO cells stably expressing hERG. (In general: The hERG channel carries a current that helps repolarise heart muscle cells.)

The IC50 is the concentration that gives 50% inhibition. Higher therefore signals a need for much substance. By AUC(0-t) is commonly meant exposure summed from dosing to a finite time, without extrapolation to infinity. High values mean more exposure, low ones less exposure.

hERG current, sequence (Q12809 whole entry): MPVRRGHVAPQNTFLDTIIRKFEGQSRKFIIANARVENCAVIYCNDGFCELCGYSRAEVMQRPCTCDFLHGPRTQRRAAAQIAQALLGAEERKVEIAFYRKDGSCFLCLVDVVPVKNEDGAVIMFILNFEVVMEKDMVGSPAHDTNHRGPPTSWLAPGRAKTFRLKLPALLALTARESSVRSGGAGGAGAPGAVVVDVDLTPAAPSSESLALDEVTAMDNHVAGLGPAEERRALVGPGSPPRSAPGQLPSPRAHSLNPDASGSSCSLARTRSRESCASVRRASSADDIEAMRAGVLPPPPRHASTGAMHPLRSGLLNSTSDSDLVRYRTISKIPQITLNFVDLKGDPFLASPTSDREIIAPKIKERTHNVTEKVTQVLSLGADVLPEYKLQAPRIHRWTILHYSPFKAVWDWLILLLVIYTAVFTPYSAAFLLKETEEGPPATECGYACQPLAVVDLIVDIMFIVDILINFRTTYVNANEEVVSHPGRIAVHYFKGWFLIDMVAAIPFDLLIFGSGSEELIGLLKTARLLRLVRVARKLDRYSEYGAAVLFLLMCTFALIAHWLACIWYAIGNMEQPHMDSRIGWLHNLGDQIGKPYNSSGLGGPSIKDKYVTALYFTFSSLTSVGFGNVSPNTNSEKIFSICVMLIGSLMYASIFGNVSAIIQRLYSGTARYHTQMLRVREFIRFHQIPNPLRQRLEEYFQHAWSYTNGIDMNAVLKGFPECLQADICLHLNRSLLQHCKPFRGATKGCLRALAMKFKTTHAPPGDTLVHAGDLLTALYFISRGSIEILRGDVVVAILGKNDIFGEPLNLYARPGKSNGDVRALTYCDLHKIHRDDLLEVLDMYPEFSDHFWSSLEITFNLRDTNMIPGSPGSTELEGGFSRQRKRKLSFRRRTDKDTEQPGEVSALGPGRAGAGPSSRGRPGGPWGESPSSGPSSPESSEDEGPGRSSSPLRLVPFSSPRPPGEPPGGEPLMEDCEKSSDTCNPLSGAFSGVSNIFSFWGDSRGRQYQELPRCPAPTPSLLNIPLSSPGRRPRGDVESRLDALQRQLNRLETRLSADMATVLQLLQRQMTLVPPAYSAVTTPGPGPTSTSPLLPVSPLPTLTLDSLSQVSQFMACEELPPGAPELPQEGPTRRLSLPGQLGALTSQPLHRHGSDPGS
CHK1 kinase, sequence (O14757 whole entry): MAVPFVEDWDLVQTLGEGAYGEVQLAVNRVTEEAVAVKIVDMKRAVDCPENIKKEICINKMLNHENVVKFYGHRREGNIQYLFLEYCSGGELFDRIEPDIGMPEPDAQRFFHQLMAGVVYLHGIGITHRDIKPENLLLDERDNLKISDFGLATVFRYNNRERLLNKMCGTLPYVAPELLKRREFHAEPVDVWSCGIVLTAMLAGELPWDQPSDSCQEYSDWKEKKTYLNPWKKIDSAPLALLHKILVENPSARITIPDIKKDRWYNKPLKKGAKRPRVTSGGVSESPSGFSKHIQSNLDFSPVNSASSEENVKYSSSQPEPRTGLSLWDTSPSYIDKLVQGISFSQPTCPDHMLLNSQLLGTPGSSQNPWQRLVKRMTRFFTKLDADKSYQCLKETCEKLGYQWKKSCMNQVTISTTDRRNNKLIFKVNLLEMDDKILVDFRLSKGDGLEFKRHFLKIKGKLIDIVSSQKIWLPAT
hERG, sequence (Q12809 whole entry): as the sequence (Q12809 whole entry) above

On to `N#Cc1cnc(Nc2cc(-c3c(OCCCN)ccc4c3OCC4)[nH]n2)cn1` [Example 3, 5-({5-[6-(3-aminopropoxy)-2,3-dihydro-1-benzofuran-7-yl]-1H-pyrazol-3-yl}amino)pyrazine-2-carbonitrile], for which the IC50 was determined as 530 nM in [1] and 4 nM in data set [2].

For `N#Cc1cnc(Nc2cc(-c3c(OCC4(CN)CC4)ccc4c3OCC4)[nH]n2)cn1` [Example 4, 5-{[5-(6-{[1-(aminomethyl)cyclopropyl]methoxy}-2,3-dihydro-1-benzofuran-7-yl)-1H-pyrazol-3-yl]amino}pyrazine-2-carbonitrile], the 50% inhibitory concentration (IC50) in data set [1] turned out to be 300 nM; in [2] it was 9.1 nM; in data set [3], 0.27 nM.

In the case of `N#Cc1cnc(Nc2cc(-c3c(OCCCN)ccc4ccnn34)[nH]n2)cn1` [Example 6, 5-({5-[6-(3-aminopropoxy)pyrazolo[1,5-a]pyridin-7-yl]-1H-pyrazol-3-yl}amino)pyrazine-2-carbonitrile], the “Compound concentration in liposome solution” value in data set [4] came to 1.88 mg/mL. Besides, the Encapsulation ratio in data set [4] is given as 100.0%. Besides, the 50% inhibitory concentration (IC50) is 1300 nM in data set [1], 6.24 nM in data set [2] and 0.21 nM in data set [3]. Also, the AUC(0-t) in data set [5] was 430 µg·h/mL.

For `N#Cc1cnc(Nc2cc(-c3c(OCCCN)cnc4cccnc34)[nH]n2)cn1` [Example 8, 5-({5-[3-(3-aminopropoxy)-1,5-naphthyridin-4-yl]-1H-pyrazol-3-yl}amino)pyrazine-2-carbonitrile], the 50% inhibitory concentration (IC50) in data set [6] was 22.3 nM; in [7], 9.1 nM; in data set [8] it was 7 nM; in [2] it was 7.02 nM; in [3], 0.5 nM; in [9], under 3 nM.

With `N#Cc1cnc(Nc2cc(-c3c(OC[C@@H]4CNCCO4)cnc4cccnc34)[nH]n2)cn1` [Example 12], the IC50 in [1] stood at 1000 nM; in [2] it was 23.2 nM; in [3], 0.38 nM.

Take `N#Cc1cnc(Nc2cc(-c3c(O[C@@H]4CCC[C@H](N)C4)cnc4c3OCC4)[nH]n2)cn1` [Example 24, 5-{[5-(6-{[(1R,3S)-3-aminocyclohexyl]oxy}-2,3-dihydrofuro[3,2-b]pyridin-7-yl)-1H-pyrazol-3-yl]amino}pyrazine-2-carbonitrile]: the half-maximal inhibitory concentration (IC50) came out at 4800 nM in [1], 12.7 nM in data set [2] and 0.31 nM in data set [3].

As for `C[C@H](CN)COc1cnc2c(c1-c1cc(Nc3cnc(C#N)cn3)n[nH]1)OCC2` [Example 28, 5-[(5-{6-[(2R)-3-amino-2-methylpropoxy]-2,3-dihydrofuro[3,2-b]pyridin-7-yl}-1H-pyrazol-3-yl)amino]pyrazine-2-carbonitrile], the IC50 in data set [6] is 5 nM; in data set [7], under 3 nM; in data set [8], under 3 nM; in data set [2] it was 6.4 nM; in data set [3], 0.43 nM; in data set [9] it was under 3 nM.

Take `N#Cc1cnc(Nc2cc(-c3c(O[C@H]4C[C@H](N)[C@H]5C[C@H]54)cnc4c3OCC4)[nH]n2)cn1` [Example 29, 5-{[5-(6-{[(1R,2S,4S,5S)-4-aminobicyclo[3.1.0]hexan-2-yl]oxy)-2,3-dihydrofuro[3,2-b]pyridin-7-yl)-1H-pyrazol-3-yl]amino}pyrazine-2-carbonitrile]: the IC50 in [1] was over 10000 nM; in data set [2] it was 29.4 nM; in data set [3], 0.33 nM.

Take `C=C(CN)COc1cnc2c(c1-c1cc(Nc3cnc(C#N)cn3)n[nH]1)OCC2` [Example 31, 5-{[5-(6-{[2-(aminomethyl)prop-2-en-1-yl]oxy)-2,3-dihydrofuro[3,2-b]pyridin-7-yl)-1H-pyrazol-3-yl]amino}pyrazine-2-carbonitrile]: the results for the concentration for half-maximal inhibition (IC50) in data set [2] and in data set [3] were 13.8 nM and 0.31 nM, respectively.

Consider `NCCCOc1cnc2c(c1-c1cc(Nc3cnc(Cl)cn3)n[nH]1)OCC2` [Example 32, N-{5-[6-(3-aminopropoxy)-2,3-dihydrofuro[3,2-b]pyridin-7-yl]-1H-pyrazol-3-yl}-5-chloropyrazin-2-amine], for which the IC50 in data set [2] turned out to be 21.5 nM; in [3], 0.33 nM.

`COC(=O)c1cnc(Nc2cc(-c3c(OCCCN)cnc4c3OCC4)[nH]n2)cn1` [Example 33, methyl 5-({5-[6-(3-aminopropoxy)-2,3-dihydrofuro[3,2-b]pyridin-7-yl]-1H-pyrazol-3-yl}amino)pyrazine-2-carboxylate]: the IC50 in data set [2] was over 1000 nM; in data set [3], 9.28 nM.

In the case of `N#Cc1cnc(Nc2cc(-c3c(O[C@@H]4CCC[C@H]4CN)cnc4cccnc34)[nH]n2)cn1` [Example 34, 5-{[5-(3-{[(1R,2S)-2-(aminomethyl)cyclopentyl]oxy}-1,5-naphthyridin-4-yl)-1H-pyrazol-3-yl]amino}pyrazine-2-carbonitrile], the IC50 in [2] is 5.5 nM; in data set [3], 0.75 nM.

Consider `N#Cc1cnc(Nc2cc(-c3c(OCC4(F)CNC4)cnc4cccnc34)[nH]n2)cn1` [Example 35, 5-[(5-{3-[(3-fluoroazetidin-3-yl)methoxy]-1,5-naphthyridin-4-yl}-1H-pyrazol-3-yl)amino]pyrazine-2-carbonitrile], for which the selectivity ratio in [10] was at least 800. Further, the half-maximal inhibitory concentration (IC50) in data set [1] is over 10000 nM; in [2], 8 nM; in data set [3], 0.6 nM.

For the compound `N#Cc1cnc(Nc2cc(-c3c(O[C@@H]4CCC[C@H](N)C4)cnc4cccnc34)[nH]n2)cn1` [Example 36, 5-{[5-(3-{[(1R,3S)-3-aminocyclohexyl]oxy}-1,5-naphthyridin-4-yl)-1H-pyrazol-3-yl]amino}pyrazine-2-carbonitrile], the IC50 in [2] was found to be 6 nM; in data set [3] it was 0.46 nM.

In the case of `N#Cc1cnc(Nc2cc(-c3c(O[C@@H]4CC[C@@H](N)C4)cnc4cccnc34)[nH]n2)cn1` [Example 37, 5-{[5-(3-{[(1R,3R)-3-aminocyclopentyl]oxy}-1,5-naphthyridin-4-yl)-1H-pyrazol-3-yl]amino}pyrazine-2-carbonitrile], the 50% inhibitory concentration (IC50) in data set [2] is 6.8 nM; in data set [3], 0.49 nM.

With `N#Cc1cnc(Nc2cc(-c3c(OCC4(CN)CC(F)(F)C4)cnc4cccnc34)[nH]n2)cn1` [Example 38, 5-{[5-(3-{[1-(aminomethyl)-3,3-difluorocyclobutyl]methoxy)-1,5-naphthyridin-4-yl)-1H-pyrazol-3-yl]amino}pyrazine-2-carbonitrile], the concentration for half-maximal inhibition (IC50) in data set [2] was 8.1 nM; in data set [3], 0.93 nM.

Consider `COc1cccc(OCCCN)c1-c1cc(Nc2cnc(C#N)cn2)n[nH]1` [Prexasertib, reference compound], for which the IC50 was determined as 38.9 nM in data set [6]; 14.9 nM in data set [7]; 9.5 nM in data set [8]; 8.55 nM in data set [2]; 4.9 nM in data set [9]. Further, the “Compound concentration in liposome solution” value in [4] stood at 2.16 mg/mL.
